Measured values: ChEMBL document CHEMBL1201862, “PubChem BioAssay data set” (2004)
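All cell lines were grown in 96-well plates and treated with compound for 48 hours. At the GI50, growth is halved.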 The source made the active and inactive calls. No stated cut-off is given here; in the data, active = GI50 up to about 1.1 µM and inactive = higher.

Columns and labels:
Assay in all cases: NCI anticancer screen, dose series, 48 h
[1] = system: ACHN
[2] = system: NCI-H522
[3] = system: HCC 2998
[4] = system: NCI-H460
[5] = system: OVCAR-3
[6] = system: T47D
[7] = system: DU-145
[8] = system: SW-620
[9] = system: BT-549
[10] = system: A549
[11] = system: HT-29
[12] = system: TK-10
[13] = system: SK-OV-3
[14] = system: NCI-H226
[15] = system: NCI-H23
[16] = system: KM12
[17] = system: CCRF-CEM
[18] = system: SF-295
[19] = system: SF-268
[20] = system: SR

Measured: GI50

Cc1nnc2sc(Cl)nn12
inactive: [1] 23.3 µM | [2] 10 µM | [3] 15.5 µM | [4] 18.5 µM | [5] 19 µM | [6] 22.9 µM | [7] 34.4 µM | [8] 3.92 µM | [9] 17.7 µM | [10] 26.1 µM | [11] 16.7 µM | [12] 27.7 µM | [13] 17.3 µM | [14] 28.6 µM | [15] 17.3 µM | [16] 14.5 µM | [17] 3.85 µM | [18] 17.7 µM

CNc1ccc(N)cc1C(=O)N1CCC[C@H]1CO
inactive: [1] > 100 µM | [2] > 100 µM | [6] > 100 µM | [7] > 100 µM | [8] > 100 µM | [9] > 100 µM | [19] > 100 µM | [10] > 100 µM | [11] > 100 µM | [12] > 100 µM | [13] > 100 µM | [14] > 100 µM | [15] > 100 µM | [16] > 100 µM | [17] > 100 µM | [18] > 100 µM

O=c1[nH]nc(Cc2c[nH]c3ccccc23)o1
inactive: [1] > 100 µM | [2] > 100 µM | [3] > 100 µM | [5] > 100 µM | [6] > 100 µM | [7] > 100 µM | [8] > 100 µM | [9] > 100 µM | [19] > 100 µM | [10] > 100 µM | [11] > 100 µM | [12] > 100 µM | [14] > 100 µM | [15] > 100 µM | [16] > 100 µM | [17] > 100 µM | [18] > 100 µM

O=C1NC(=S)NC(=O)C1C(c1ccc(Cl)cc1)C1C(=O)NC(=S)NC1=O.c1ccncc1
inactive: [1] > 100 µM | [2] > 100 µM | [4] > 100 µM | [5] > 100 µM | [6] > 100 µM | [7] > 100 µM | [8] > 100 µM | [9] > 100 µM | [10] > 100 µM | [11] > 100 µM | [12] > 100 µM | [14] > 100 µM | [15] > 100 µM | [16] > 100 µM | [17] > 100 µM | [18] > 100 µM

COc1ccc2c(c1)C1Oc3ccccc3CC1CO2 (configuration not stated)
inactive: [1] 60.1 µM | [2] 45 µM | [3] 19.7 µM | [4] 96.8 µM | [5] 57.7 µM | [6] 26.2 µM | [7] > 100 µM | [8] 63.1 µM | [9] 52.2 µM | [19] > 100 µM | [10] 55.3 µM | [11] 42 µM | [12] 73.1 µM | [13] 97.5 µM | [14] > 100 µM | [15] > 100 µM | [16] 37.2 µM | [17] > 100 µM | [18] 76.4 µM

Cn1ccnc1Oc1ccc(Cl)cc1
inactive: [1] 12.8 µM | [2] 2.28 µM | [3] 4.57 µM | [4] 30.3 µM | [6] 2.18 µM | [7] 15.9 µM | [8] 13 µM | [9] 16.9 µM | [19] 28.5 µM | [10] 34.2 µM | [11] 13.7 µM | [12] 18.7 µM | [13] 47.4 µM | [14] 13 µM | [15] 17.5 µM

O=c1[nH]nc(Cc2ccc(Cl)cc2)n1Nc1ccccc1
inactive: [1] > 100 µM | [3] > 100 µM | [4] > 100 µM | [5] > 100 µM | [6] > 100 µM | [7] 4.94 µM | [8] > 100 µM | [9] > 100 µM | [10] > 100 µM | [11] > 100 µM | [12] > 100 µM | [14] > 100 µM | [15] > 100 µM | [16] > 100 µM | [17] > 100 µM | [18] > 100 µM

N#CC1(c2ccccc2)CCN(C2(c3ccccc3)CCCCC2)CC1
inactive: [1] > 100 µM | [20] > 100 µM | [3] > 100 µM | [5] > 100 µM | [6] > 100 µM | [7] > 100 µM | [8] > 100 µM | [9] > 100 µM | [19] > 100 µM | [10] > 100 µM | [11] > 100 µM | [12] > 100 µM | [13] > 100 µM | [14] > 100 µM | [15] > 100 µM | [16] > 100 µM | [17] > 100 µM | [18] > 100 µM

CCOC(=O)c1nnsc1N/N=C\c1ccc([N+](=O)[O-])cc1
inactive: [1] > 100 µM | [2] > 100 µM | [3] > 100 µM | [4] > 100 µM | [5] > 100 µM | [6] > 100 µM | [7] > 100 µM | [8] > 100 µM | [9] > 100 µM | [19] 77.4 µM | [10] > 100 µM | [11] > 100 µM | [12] > 100 µM | [13] > 100 µM | [14] > 100 µM | [15] > 100 µM | [16] > 100 µM | [17] > 100 µM | [18] > 100 µM

NC(Cc1ccccc1)(C(=O)O)C(=O)O
inactive: [1] > 100 µM | [2] > 100 µM | [3] > 100 µM | [4] > 100 µM | [5] > 100 µM | [6] > 100 µM | [7] > 100 µM | [8] > 100 µM | [9] > 100 µM | [19] > 100 µM | [10] > 100 µM | [11] > 100 µM | [12] > 100 µM | [13] > 100 µM | [14] > 100 µM | [15] > 100 µM | [16] > 100 µM | [17] > 100 µM | [18] > 100 µM

COc1cc2cc3c4cc(OC)c(OC)cc4cc[n+]3c(C)c2cc1OC [CORALYNE]
inactive: [1] > 100 µM | [2] 40 µM | [3] 42.7 µM | [4] 38.9 µM | [5] > 100 µM | [6] > 100 µM | [7] > 100 µM | [8] 58.7 µM | [9] 10.8 µM | [19] 1.96 µM | [10] > 100 µM | [11] 77.4 µM | [12] > 100 µM | [13] > 100 µM | [14] 30.4 µM | [15] > 100 µM | [16] 88.7 µM | [17] > 100 µM | [18] 28.6 µM
